Test results taken from patent publication US5326902A, “Oxyalkyne compounds, pharmaceutical compositions containing them and processes for preparing such compounds and compositions” (Gruenenthal GmbH, priority 1992, dated 1994).

Tests used:
[1] = molecular target: T1, 5-lipoxygenase (Rattus norvegicus, UniProt P12527); assay: Inhibition of 5-lipoxygenase in RBL-1-cells; type: cell-based; conditions: 20 μM [14C]-arachidonic acid, 20 μM calcium ionophore A 23 187, 10 minutes
T1 construct: endogenous in cells; host or cells: RBL-1 cells (rat basophilic leukemia)
T1 sequence (P12527 1-673): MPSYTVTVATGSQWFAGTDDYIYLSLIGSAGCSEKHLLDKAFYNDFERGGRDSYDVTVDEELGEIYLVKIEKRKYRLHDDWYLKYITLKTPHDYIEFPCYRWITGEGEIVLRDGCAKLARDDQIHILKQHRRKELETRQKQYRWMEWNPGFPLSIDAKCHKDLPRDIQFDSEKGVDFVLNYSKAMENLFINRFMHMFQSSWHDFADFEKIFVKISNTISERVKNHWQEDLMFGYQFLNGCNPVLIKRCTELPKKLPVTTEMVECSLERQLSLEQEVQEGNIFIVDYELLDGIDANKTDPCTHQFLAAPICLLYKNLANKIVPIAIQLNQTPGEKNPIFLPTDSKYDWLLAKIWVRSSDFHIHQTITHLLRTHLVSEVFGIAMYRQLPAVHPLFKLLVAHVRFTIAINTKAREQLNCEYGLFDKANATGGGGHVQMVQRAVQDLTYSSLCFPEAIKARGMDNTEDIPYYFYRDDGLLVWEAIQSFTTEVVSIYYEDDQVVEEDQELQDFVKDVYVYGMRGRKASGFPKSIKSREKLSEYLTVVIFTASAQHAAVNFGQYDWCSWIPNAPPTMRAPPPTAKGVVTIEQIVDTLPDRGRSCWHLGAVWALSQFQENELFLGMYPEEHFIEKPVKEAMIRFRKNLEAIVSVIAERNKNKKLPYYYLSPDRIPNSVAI
Experimental: To determine the inhibition of 5-lipoxygenase, rat basophilic leukemia cells (RBL-1-cells) were cultured in vitro, harvested by centrifugation, washed with 50 mM potassium phosphate buffer of pH 7.4, and then suspended in this buffer at 1×10^7 cells/ml. Indomethacin (10 μM) and calcium chloride (2 mM) were added to 1 ml portions of this suspension, and then the mixture was incubated either in the presence of a compound according to the invention in a concentration range of from 0,1 μM to 100 μM or in the presence of a solvent (ethanol and/or dimethyl sulfoxide) for 3 minutes and thereafter with 20 μM of [^14 C]-arachidonic acid and 20 μM of calcium ionophore A 23 187 for 10 minutes. The reaction was stopped by adding 20 μl of glacial acetic acid, and then the mixture was extracted with ethyl acetate to isolate the metabolites of arachidonic acid formed by the enzymatic action of 5-lipoxygenase. These were separated by thin layer chromatography using a solvent mixture known to be suitable for lipoxygenase products [c.f. Jakschik et al., Biochem. Biophys. Res. Commun. 102, 624 (1981)].
The distribution of radioactivity among the different metabolites of arachidonic acid was measured using a TLC Linear Analyzer. By correlating the percentage amounts of the products formed under the action of 5-lipoxygenase (5HETE, isomers of LTB4) in the absence as well as in the presence of different concentrations of compounds according to the invention, the IC50 -values, i.e. the concentrations which cause a 50% inhibition of 5-lipoxygenase, were determined graphically from semilogarithmic plots.

[2] = system: 5-lipoxygenase; assay: Inhibition of 5-lipoxygenase in Rat Blood After Oral Administration (ex vivo iLTB4-formation); conditions: 21.5 mg/kg oral, male Wistar rats, one hour after administration
Experimental: The bioavailability of the compounds of formula I as 5-lipoxygenase inhibitors was characterized by means of an ex vivo biochemical assay method described by Tateson et al. in Brit. J. Pharmacol. 94, 528 (1988): A compound of formula I was orally administered to male rats (Wistar strain) at a dose of 21.5 mg/kg. After lethal CO2 -narcosis one hour after administration, the rats were bled by heart puncture with added heparin as an anticoagulant. Aliquots of the whole blood were incubated at 37° C. for 30 minutes in a water bath with calcium ionophore A 23 187 at an end concentration of 15 μg/ml. At the end of the incubation, the samples were centrifuged, and the concentration of the immunoreactive LTB4 (iLTB4) in aliquots of cell-free plasma was determined by radioimmunoassay (3H-LTB4 -RIA, Amersham). To enable calculation of the inhibition in percent of ex vivo iLTB4 -formation in whole rat blood treated with a compound according to the invention, rats orally treated with an appropriate vehicle solution were included in all experiments, and aliquots of their blood were run in parallel and were processed in the same way as described. The average iLTB4 -content of the plasma of the vehicletreated rats served as a 100% value. The activity in percent of the ex vivo iLTB4 -formation after oral administration of a compound according to the invention was calculated by dividing the average value of the iLTB4 -contents in ng iLTB4 /ml of the group treated with a compound according to the invention by the average value of the iLTB4 -contents in ng iLTB4 /ml of the vehicle treated group and subsequent multiplication by a factor of 100. The respective inhibition in percent was calculated by subtracting the activity in percent from 100.

With CC(=O)N(O)Cc1ccc(C(O)C#Cc2ccccc2)cc1 (racemic) [Example 1, N-Hydroxy-N-[4-[1-hydroxy-3-phenyl-prop-2-yn-1-yl]benzyl]acetamide] as the compound, how does the IC50 [1] read?
The IC50 was 5 µM.

And the “Inhibition [%] of ex vivo iLTB4-formation” value [2]?
The value was 93%.
